This assay deals with HCV 1b-377-neo replicon cells. Kind of assay: HCV replicon assay, HCV 1b-377-neo replicon cells (1b FRET). In kind it is cell-based, Hepatitis C virus genotype 1b. The conditions noted are these: Hepatitis C virus, HCV 1b-377-neo replicon cells; HCV 1b genotype; read-out: EC50 range against HCV 1b (Table 2, Range). In a few lines:
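Compounds were tested in genotype 1b subgenomic replicon cells carrying a neomycin marker, alongside a matched replicon line with an NS5A Y2065H substitution that confers resistance to a reference NS5A inhibitor.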
Background: In antiviral work, replicon cells carry a viral genome segment that copies itself.
Broadly, the EC50 is the concentration at which the effect is half-maximal. Take `CN1CCN(C(=O)N[C@@H](C(=O)N2CCC[C@H]2c2ncc(-c3ccc(-c4ccc(-c5cnc([C@@H]6CCCN6C(=O)[C@H](NC(=O)N6CCN(C)CC6)c6ccccc6)[nH]5)cc4)cc3)[nH]2)c2ccccc2)CC1` [Example 25-7, N,N′-(4,4′-biphenyldiylbis(1H-imidazole-5,2-diyl(2S)-2,1-pyrrolidinediyl((1R)-2-oxo-1-phenyl-2,1-ethanediyl)))bis(4-methyl-1-piperazinecarboxamide)]: the EC50 lay within 1 to 99 nM. For `O=C(Nc1cccnc1)N[C@@H](C(=O)N1CCC[C@H]1c1ncc(-c2ccc(-c3ccc(-c4cnc([C@@H]5CCCN5C(=O)[C@H](NC(=O)Nc5cccnc5)c5ccccc5)[nH]4)cc3)cc2)[nH]1)c1ccccc1` [Example 25-8, N,N″-(4,4′-biphenyldiylbis(1H-imidazole-5,2-diyl(2S)-2,1-pyrrolidinediyl((1R)-2-oxo-1-phenyl-2,1-ethanediyl)))bis(3-(3-pyridinyl)urea)], the EC50 was 0.001 to 0.999 nM. The same measure for `COC(=O)N[C@@H](C(=O)N1CCC[C@H]1c1ncc(-c2ccc(-c3ccc(-c4cnc([C@@H]5CCCN5C(=O)[C@H](NC(=O)OC)C(C)C)[nH]4)cc3)cc2)[nH]1)C(C)C` [Example 26, methyl ((1R)-1-(((2S)-2-(5-(4′-(2-((2S)-1-((2R)-2-((methoxycarbonyl)amino)-3-methylbutanoyl)-2-pyrrolidinyl)-1H-imidazol-5-yl)-4-biphenylyl)-1H-imidazol-2-yl)-1-pyrrolidinyl)carbonyl)-2-methylpropyl)carbamate]: 1 to 99 nM; for `CC(=O)N[C@@H](C(=O)N1CCC[C@H]1c1ncc(-c2ccc(-c3ccc(-c4cnc([C@@H]5CCCN5C(=O)[C@H](NC(C)=O)C(C)C)[nH]4)cc3)cc2)[nH]1)C(C)C` [Example 27, N-((1R)-1-(((2S)-2-(5-(4′-(2-((2S)-1-((2R)-2-acetamido-3-methylbutanoyl)-2-pyrrolidinyl)-1H-imidazol-5-yl)-4-biphenylyl)-1H-imidazol-2-yl)-1-pyrrolidinyl)carbonyl)-2-methylpropyl)acetamide]: 1 to 99 nM; for `COC(=O)N[C@@H](C(=O)N1CCC[C@H]1c1ncc(-c2ccc(-c3ccc(-c4cnc([C@@H]5CCCN5C(=O)Cc5ccccc5)[nH]4)cc3)cc2)[nH]1)c1ccccc1` [Example 28, methyl ((1R)-2-oxo-1-phenyl-2-((2S)-2-(5-(4′-(2-((2S)-1-(phenylacetyl)-2-pyrrolidinyl)-1H-imidazol-5-yl)-4-biphenylyl)-1H-imidazol-2-yl)-1-pyrrolidinyl)ethyl)carbamate]: 1 to 99 nM. The figure for `CN(C)[C@@H](C(=O)N1CCC[C@H]1c1ncc(-c2ccc(-c3ccc(-c4cnc([C@@H]5CCCN5C(=O)[C@@H](c5ccccc5)N5CCCCC5)[nH]4)cc3)cc2)[nH]1)c1ccccc1` [Example 28-1, (1R)—N,N-dimethyl-2-oxo-1-phenyl-2-((2S)-2-(5-(4′-(2-((2S)-1-((2R)-2-phenyl-2-(1-piperidinyl)acetyl)-2-pyrrolidinyl)-1H-imidazol-5-yl)-4-biphenylyl)-1H-imidazol-2-yl)-1-pyrrolidinyl)ethanamine] is 0.001 to 0.999 nM; for `O=C([C@H]1CCCO1)N1CCC[C@H]1c1ncc(-c2ccc(-c3ccc(-c4cnc([C@@H]5CCCN5C(=O)[C@@H](c5ccccc5)N5CCCCC5)[nH]4)cc3)cc2)[nH]1` [Example 28-2, 1-((1R)-2-oxo-1-phenyl-2-((2S)-2-(5-(4′-(2-((2S)-1-((2R)-tetrahydro-2-furanylcarbonyl)-2-pyrrolidinyl)-1H-imidazol-5-yl)-4-biphenylyl)-1H-imidazol-2-yl)-1-pyrrolidinyl)ethyl)piperidine] it is 0.001 to 0.999 nM. The same measure for `COC(=O)N[C@@H](C(=O)N1CCC[C@H]1c1ncc(-c2ccc(-c3ccc(-c4cnc([C@@H]5CCCN5C(=O)[C@@H](c5ccccc5)N5CCCCC5)[nH]4)cc3)cc2)[nH]1)c1ccccc1Cl` [Example 28-3, methyl ((1R)-1-(2-chlorophenyl)-2-oxo-2-((2S)-2-(5-(4′-(2-((2S)-1-((2R)-2-phenyl-2-(1-piperidinyl)acetyl)-2-pyrrolidinyl)-1H-imidazol-5-yl)-4-biphenylyl)-1H-imidazol-2-yl)-1-pyrrolidinyl)ethyl)carbamate]: 0.001 to 0.999 nM. On to `CN(C)[C@@H](C(=O)N1CCC[C@H]1c1ncc(-c2ccc(-c3ccc(-c4cnc([C@@H]5CCCN5C(=O)[C@@H](c5ccccc5)N5CCCCC5)[nH]4)cc3)cc2)[nH]1)c1ccccc1Cl` [Example 28-4, (1R)-1-(2-chlorophenyl)-N,N-dimethyl-2-oxo-2-((2S)-2-(5-(4′-(2-((2S)-1-((2R)-2-phenyl-2-(1-piperidinyl)acetyl)-2-pyrrolidinyl)-1H-imidazol-5-yl)-4-biphenylyl)-1H-imidazol-2-yl)-1-pyrrolidinyl)ethanamine], for which the EC50 lay in the range of 0.001 to 0.999 nM.

For the compound `CN(C)[C@@H](C(=O)N1CCC[C@H]1c1ncc(-c2ccc(-c3ccc(-c4cnc([C@@H]5CCCN5C(=O)[C@@H](c5ccccc5)N5CCCCC5)[nH]4)cc3)cc2)[nH]1)c1ccccc1F` [Example 28-5, (1R)-1-(2-fluorophenyl)-N,N-dimethyl-2-oxo-2-((2S)-2-(5-(4′-(2-((2S)-1-((2R)-2-phenyl-2-(1-piperidinyl)acetyl)-2-pyrrolidinyl)-1H-imidazol-5-yl)-4-biphenylyl)-1H-imidazol-2-yl)-1-pyrrolidinyl)ethanamine], the concentration for a half-maximal effect (EC50) lay within 0.001 to 0.999 nM. With `COC(=O)N[C@@H](C(=O)N1CCC[C@H]1c1ncc(-c2ccc(-c3ccc(-c4cnc([C@@H]5CCCN5C(=O)N5CCN(C)CC5)[nH]4)cc3)cc2)[nH]1)c1ccccc1` [Example 29, methyl ((1R)-2-((2S)-2-(5-(4′-(2-((2S)-1-((4-methyl-1-piperazinyl)carbonyl)-2-pyrrolidinyl)-1H-imidazol-5-yl)-4-biphenylyl)-1H-imidazol-2-yl)-1-pyrrolidinyl)-2-oxo-1-phenylethyl)carbamate], the 50% effective concentration (EC50) fell in the range of 0.001 to 0.999 nM.

`COC(=O)N[C@@H](C(=O)N1CCC[C@H]1c1ncc(-c2ccc(-c3ccc(-c4cnc([C@@H]5CCCN5C(=O)CN)[nH]4)cc3)cc2)[nH]1)c1ccccc1` [Example 30, methyl ((1R)-2-((2S)-2-(5-(4′-(2-((2S)-1-glycyl-2-pyrrolidinyl)-1H-imidazol-5-yl)-4-biphenylyl)-1H-imidazol-2-yl)-1-pyrrolidinyl)-2-oxo-1-phenylethyl)carbamate]: the EC50 lay in the range of 1 to 99 nM. Consider `COC(=O)N[C@@H](C(=O)N1CCC[C@H]1c1ncc(-c2ccc(-c3ccc(-c4cnc([C@@H]5CCCN5C(C)=O)[nH]4)cc3)cc2)[nH]1)c1ccccc1` [Example 31, methyl ((1R)-2-((2S)-2-(5-(4′-(2-((2S)-1-acetyl-2-pyrrolidinyl)-1H-imidazol-5-yl)-4-biphenylyl)-1H-imidazol-2-yl)-1-pyrrolidinyl)-2-oxo-1-phenylethyl)carbamate], for which the concentration giving a half-maximal response (EC50) lay within 0.001 to 0.999 nM. The figure for `CCC(=O)N1CCC[C@H]1c1ncc(-c2ccc(-c3ccc(-c4cnc([C@@H]5CCCN5C(=O)[C@H](NC(=O)OC)c5ccccc5)[nH]4)cc3)cc2)[nH]1` [Example 32, methyl ((1R)-2-oxo-1-phenyl-2-((2S)-2-(5-(4′-(2-((2S)-1-propionyl-2-pyrrolidinyl)-1H-imidazol-5-yl)-4-biphenylyl)-1H-imidazol-2-yl)-1-pyrrolidinyl)ethyl)carbamate] is 1 to 99 nM; for `COC(=O)N[C@@H](C(=O)N1CCC[C@H]1c1ncc(-c2ccc(-c3ccc(-c4cnc([C@@H]5CCCN5C(=O)C5CC5)[nH]4)cc3)cc2)[nH]1)c1ccccc1` [Example 33, methyl ((1R)-2-((2S)-2-(5-(4′-(2-((2S)-1-(cyclopropylcarbonyl)-2-pyrrolidinyl)-1H-imidazol-5-yl)-4-biphenylyl)-1H-imidazol-2-yl)-1-pyrrolidinyl)-2-oxo-1-phenylethyl)carbamate] it is 0.001 to 0.999 nM. The figure for `COC(=O)N[C@@H](C(=O)N1CCC[C@H]1c1ncc(-c2ccc(-c3ccc(-c4cnc([C@@H]5CCCN5C(=O)CC5CC5)[nH]4)cc3)cc2)[nH]1)c1ccccc1` [Example 34, methyl ((1R)-2-((2S)-2-(5-(4′-(2-((2S)-1-(cyclopropylacetyl)-2-pyrrolidinyl)-1H-imidazol-5-yl)-4-biphenylyl)-1H-imidazol-2-yl)-1-pyrrolidinyl)-2-oxo-1-phenylethyl)carbamate] is 0.001 to 0.999 nM. For `COC(=O)N[C@@H](C(=O)N1CCC[C@H]1c1ncc(-c2ccc(-c3ccc(-c4cnc([C@@H]5CCCN5C(=O)[C@@H](C)O)[nH]4)cc3)cc2)[nH]1)c1ccccc1` [Example 35, methyl ((1R)-2-((2S)-2-(5-(4′-(2-((2S)-1-((2R)-2-hydroxypropanoyl)-2-pyrrolidinyl)-1H-imidazol-5-yl)-4-biphenylyl)-1H-imidazol-2-yl)-1-pyrrolidinyl)-2-oxo-1-phenylethyl)carbamate], the concentration giving a half-maximal response (EC50) was 0.001 to 0.999 nM. The figure for `COC(=O)N[C@@H](C(=O)N1CCC[C@H]1c1ncc(-c2ccc(-c3ccc(-c4cnc([C@@H]5CCCN5C(=O)[C@H]5CCCO5)[nH]4)cc3)cc2)[nH]1)c1ccccc1` [Example 36, methyl ((1R)-2-oxo-1-phenyl-2-((2S)-2-(5-(4′-(2-((2S)-1-((2R)-tetrahydro-2-furanylcarbonyl)-2-pyrrolidinyl)-1H-imidazol-5-yl)-4-biphenylyl)-1H-imidazol-2-yl)-1-pyrrolidinyl)ethyl)carbamate] is 0.001 to 0.999 nM; for `COC(=O)N[C@@H](C(=O)N1CCC[C@H]1c1ncc(-c2ccc(-c3ccc(-c4cnc([C@@H]5CCCN5C(=O)CN(C)C)[nH]4)cc3)cc2)[nH]1)c1ccccc1` [Example 37, methyl ((1R)-2-((2S)-2-(5-(4′-(2-((2S)-1-(N,N-dimethylglycyl)-2-pyrrolidinyl)-1H-imidazol-5-yl)-4-biphenylyl)-1H-imidazol-2-yl)-1-pyrrolidinyl)-2-oxo-1-phenylethyl)carbamate] it is 0.001 to 0.999 nM.

Values taken from patent US8574563B2 (Bristol-Myers Squibb Company, priority 2006, dated 2013).
